In the supplement of paper PMC5908809:

Assays:
[1] = test system: normal NK cells expanded with K562-aAPC; experiment: percent inhibition of viability; higher = more inhibition; details: 72 h, IL-2 2.5 ng/mL
Protocol: (§1)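 Drug sensitivity and resistance testing on K562-aAPC-expanded normal NK cells: 5 concentrations (10-fold steps over a 10,000-fold range), 72 h at 37 °C, viability by CellTiter-Glo normalised to DMSO and benzethonium chloride controls; DSS from the fitted curve.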

DERL-7 (IL-2 2.5 ng/mL) [2] = experiment: as above; details: 72 h
IMC-1 (IL-2 20 ng/mL) [3] = experiment: as above; details: 72 h
KAI3 (IL-2 2.5 ng/mL) [4] = experiment: as above; details: 72 h
KHYG-1 (IL-2 2.5 ng/mL) [5] = experiment: as above; details: 72 h
NK-92 (IL-2 2.5 ng/mL) [6] = experiment: as above; details: 72 h
NK-YS (IL-2 2.5 ng/mL) [7] = experiment: as above; details: 72 h
NKL (IL-2 2.5 ng/mL) [8] = experiment: as above; details: 72 h
SNK-6 (IL-2 2.5 ng/mL) [9] = experiment: as above; details: 72 h
YT (IL-2 2.5 ng/mL) [10] = experiment: as above; details: 72 h
[11] = test system: normal primary NK cells, pool 1 (3 donors) (IL-2 2.5 ng/mL); experiment: as above; details: 72 h
[12] = test system: normal primary NK cells, pool 1 (3 donors), resting (IL-2 0 ng/mL); experiment: as above; details: 72 h
[13] = test system: normal primary NK cells, pool 2 (3 donors) (IL-2 2.5 ng/mL); experiment: as above; details: 72 h
[14] = test system: normal primary NK cells, pool 3 (3 donors) (IL-2 2.5 ng/mL); experiment: as above; details: 72 h
[15] = test system: normal NK cells expanded with K562-aAPC; experiment: drug sensitivity score (DSS) (DSS units); higher = more sensitive; extreme values may be limits of the assay; details: 72 h; IL-2 2.5 ng/mL
Protocol: as §1

DERL-7 (IL-2 2.5 ng/mL) [16] = experiment: as above; details: 72 h
IMC-1 (IL-2 20 ng/mL) [17] = experiment: as above; details: 72 h
KAI3 (IL-2 2.5 ng/mL) [18] = experiment: as above; details: 72 h
KHYG-1 (IL-2 2.5 ng/mL) [19] = experiment: as above; details: 72 h
NK-92 (IL-2 2.5 ng/mL) [20] = experiment: as above; details: 72 h
NK-YS (IL-2 2.5 ng/mL) [21] = experiment: as above; details: 72 h
NKL (IL-2 2.5 ng/mL) [22] = experiment: as above; details: 72 h
SNK-6 (IL-2 2.5 ng/mL) [23] = experiment: as above; details: 72 h
YT (IL-2 2.5 ng/mL) [24] = experiment: as above; details: 72 h
[25] = test system: normal primary NK cells, pool 1 (3 donors) (IL-2 2.5 ng/mL); experiment: as above; details: 72 h
[26] = test system: normal primary NK cells, pool 1 (3 donors), resting (IL-2 0 ng/mL); experiment: as above; details: 72 h
[27] = test system: normal primary NK cells, pool 2 (3 donors) (IL-2 2.5 ng/mL); experiment: as above; details: 72 h
[28] = test system: normal primary NK cells, pool 3 (3 donors) (IL-2 2.5 ng/mL); experiment: as above; details: 72 h

Cc1cc(Nc2cc(CN3CCOCC3)c3nc(C)c(Cc4ccc(Cl)cc4F)n3n2)n[nH]1 [Gandotinib] (max concentration tested 10000 nM)
percent inhibition of viability [%]
Details | 1 nM | 10 nM | 100 nM | 1000 nM | 10000 nM
DERL-7 (IL-2 2.5 ng/mL) [2] | 2.64 | 12.5 | 31.3 | 96.2 | 100
IMC-1 (IL-2 20 ng/mL) [3] | -4.23 | -6.96 | -22.2 | 36.1 | 99.6
KAI3 (IL-2 2.5 ng/mL) [4] | 8.43 | 12.9 | 45.1 | 92.9 | 82.2
KHYG-1 (IL-2 2.5 ng/mL) [5] | 0.26 | 6.43 | 45.7 | 106 | 95.9
NK-92 (IL-2 2.5 ng/mL) [6] | 4.87 | 11.2 | 20.5 | 86.5 | 96.2
NK-YS (IL-2 2.5 ng/mL) [7] | 1.47 | 2.64 | 22.9 | 77.5 | 93.6
NKL (IL-2 2.5 ng/mL) [8] | -9.53 | -6.03 | 52.5 | 77.8 | 71.9
SNK-6 (IL-2 2.5 ng/mL) [9] | 6.62 | 7.51 | 9.98 | 95 | 87.1
YT (IL-2 2.5 ng/mL) [10] | 1.95 | -0.29 | 5.49 | 77.5 | 94.8
[1] | -0.65 | 3.87 | 25.1 | 89.6 | 70.5
[11] | -11.8 | -7.74 | 18.1 | 58.3 | 79.4
[12] | -20.1 | -7.1 | 2.98 | -45.4 | 20.2
[13] | -11.3 | -5.04 | 11.2 | 50.9 | 52.6
[14] | -10.9 | -0.67 | 2.59 | 43.9 | 65.9

Details | drug sensitivity score
DERL-7 (IL-2 2.5 ng/mL) [16] | 21
IMC-1 (IL-2 20 ng/mL) [17] | 10.4
KAI3 (IL-2 2.5 ng/mL) [18] | 22
KHYG-1 (IL-2 2.5 ng/mL) [19] | 23.9
NK-92 (IL-2 2.5 ng/mL) [20] | 18.3
NK-YS (IL-2 2.5 ng/mL) [21] | 17.1
NKL (IL-2 2.5 ng/mL) [22] | 20.4
SNK-6 (IL-2 2.5 ng/mL) [23] | 18.8
YT (IL-2 2.5 ng/mL) [24] | 15
[15] | 20
[25] | 13
[26] | 0.18
[27] | 11.1
[28] | 8.97

COC(=O)c1ccc2c(c1)NC(=O)/C2=C(\Nc1ccc(N(C)C(=O)CN2CCN(C)CC2)cc1)c1ccccc1 [Nintedanib] (max concentration tested 10000 nM)
percent inhibition of viability [%]
Details | 1 nM | 10 nM | 100 nM | 1000 nM | 10000 nM
DERL-7 (IL-2 2.5 ng/mL) [2] | -8.99 | 0.01 | 2.16 | 38.1 | 100
IMC-1 (IL-2 20 ng/mL) [3] | -8.95 | -2.57 | -11.3 | -22.3 | 100
KAI3 (IL-2 2.5 ng/mL) [4] | -8.46 | -2.04 | 1.37 | 16.4 | 93.4
KHYG-1 (IL-2 2.5 ng/mL) [5] | -5.39 | -3.23 | -3.31 | 20.3 | 99.6
NK-92 (IL-2 2.5 ng/mL) [6] | -4.93 | 2.39 | -1.05 | 45.4 | 99.4
NK-YS (IL-2 2.5 ng/mL) [7] | -4.51 | -2.23 | -3.24 | 20.9 | 99.6
NKL (IL-2 2.5 ng/mL) [8] | -7.94 | -17.2 | -2.91 | 56.5 | 100
SNK-6 (IL-2 2.5 ng/mL) [9] | 16.6 | 7.57 | -2.75 | -31.8 | 83.2
YT (IL-2 2.5 ng/mL) [10] | -2.16 | -1.03 | -3.64 | 7.19 | 99.3
[1] | -0.08 | -2.82 | 8.47 | 31 | 100
[11] | -7.78 | -11 | -5.14 | 38.2 | 98.9
[12] | -8.23 | -15.9 | -15.4 | 47 | 94.9
[13] | -15.7 | -1.56 | -14 | 23.9 | 99.2
[14] | -18.1 | -18.2 | -5.82 | 5.55 | 99.6

Details | drug sensitivity score
DERL-7 (IL-2 2.5 ng/mL) [16] | 10.7
IMC-1 (IL-2 20 ng/mL) [17] | 4.45
KAI3 (IL-2 2.5 ng/mL) [18] | 7.87
KHYG-1 (IL-2 2.5 ng/mL) [19] | 8.76
NK-92 (IL-2 2.5 ng/mL) [20] | 11.3
NK-YS (IL-2 2.5 ng/mL) [21] | 8.84
NKL (IL-2 2.5 ng/mL) [22] | 12.3
SNK-6 (IL-2 2.5 ng/mL) [23] | 3.37
YT (IL-2 2.5 ng/mL) [24] | 6.61
[15] | 9.6
[25] | 10.6
[26] | 11.1
[27] | 9.18
[28] | 6.33
